# Measured values as given in article PMC8038991, “R-catcher, a potent molecular tool to unveil the arginylome” (Cellular and Molecular Life Sciences: CMLS, 2021).
# Entries after “also recorded” stand apart in the source; their conditions may differ.
# Key:
# R-catcher [1] = assay: R-catcher pulldown of P1' site Gly mutants; assay type: binding, human; details: E20 SERPINH1, E30 (printed) PRDX4, D23 CLUS, D30 FBLN1 to Gly, Fig. 6e
# Procedure: (§1) For small-scale R-catcher pull-down assays, 300 µg of purified R-catcher was conjugated with 120 µl of Strep-Tactin sepharose resin by incubating overnight at 4 °C. To test R-catcher’s ability to capture known arginylated proteins, such as R-BiP, R-PDI, R-nsP4 and R-RGS4, plasmids encoding Ub-X-(BiP, PDI and nsP4) or MX-RGS4 (X = Arg or Val) were transiently transfected into HEK293 cells. After 24 h, cells were treated with 10 µM MG132 and 100 nM thapsigargin for another 24 h. […]
# (§2) Plasmids encoding the proteins were transiently transfected to HeLa cells for 24 h and stimulated with 5 µM MG132 plus 100 nM TG for another 24 h. […] Cell lysates were subjected to R-catcher pulldown, and bound proteins were detected by western blot analysis. c R-catcher pull-down assays to evaluate if the arginylation of FBNL1, SERPINH1, CLUS and PRDX4 is induced in response to MG132 plus thapsigargin. d X-peptide pulldown assays to confirm no interaction of R-catcher with Nt-Ala19 of SERPINH1 peptides and Nt-Trp38 of PRDX4 peptides. […] Bound GST-ZZ (N132D) was detected by immunoblotting. e Identification of arginylated sites employing mutational analysis. […]
# R-catcher [2] = assay: R-catcher pulldown in +/+ and ATE1-/- MEFs; assay type: binding; details: +/+ versus ATE1-/- MEFs, MG132 plus TG, 9 h, Fig. 6b
# Procedure: as §1, §2
# [3] = Identification of arginylation sites, GelNrich and in-gel digestion LC-MS/MS
# Source text: Upon separation of the immunoprecipitated protein by SDS-PAGE and staining with Coomassie Blue, the corresponding protein band was excised, half of which was subjected to GelNrich and the other half to conventional in-gel digestion GelNrich is an N-terminal peptide enrichment method based on in-gel digestion. The method includes in-gel protein level labeling of primary amines using d6-acetic anhydride and post-digestion negative selection of labeled N-terminal peptide(s) using N-hydroxysuccinimide activated agarose beads. Peptides recovered from GelNrich or in-gel digestion were dried in a vacuum evaporator and reconstituted in 0.1% formic acid. An aliquot was injected from a cooled (10 °C) auto-sampler into a reversed-phase EASY-Spray column (25 cm × 75 μm, Thermo Fisher Scientific) on an Eksigent nanoLC-ultra 1D plus system (Danaher Corporation) at a flow rate of 300 nL/min. Prior to use, the column was equilibrated with 96% buffer A (0.1% formic acid in water) and 4% buffer B (0.1% formic acid in acetonitrile). The peptides were eluted with a linear gradient from 4 to 35% buffer B over 60 min and 35–80% buffer B over 2 min followed by an organic wash and aqueous re-equilibration at a flow rate of 300 nL/min with a total run time of 96 min. The HPLC system was coupled to a Q-Exactive mass spectrometer (Thermo Fisher Scientific) operated in a data-dependent acquisition (DDA) mode. […]
# R-catcher [4] = assay: R-catcher pulldown of putative arginylated ER proteins, HeLa; assay type: binding, human; details: 5 µM MG132 plus 100 nM TG, RA competition, Fig. 6a
# Procedure: For small-scale R-catcher pull-down assays, 300 µg of purified R-catcher was conjugated with 120 µl of Strep-Tactin sepharose resin by incubating overnight at 4 °C. To test R-catcher’s ability to capture known arginylated proteins, such as R-BiP, R-PDI, R-nsP4 and R-RGS4, plasmids encoding Ub-X-(BiP, PDI and nsP4) or MX-RGS4 (X = Arg or Val) were transiently transfected into HEK293 cells. After 24 h, cells were treated with 10 µM MG132 and 100 nM thapsigargin for another 24 h. Cells were harvested and lysed in hypotonic buffer and 300 µg total protein was incubate with 25 µl R-catcher-sepharose resin in binding buffer (20 mM HEPES pH 7.9, 0.05% Tween 20, 10% glycerol, 0.2 M KCl, protease inhibitor and phosphatase inhibitor) for 3 h with gentle rotation at 4 °C. After three washes with binding buffer, bound proteins were dissociated with 2 × SDS sample buffer and boiling at 100 °C and subjected to immunoblotting using anti-myc or flag antibodies.
# Plasmids encoding the proteins were transiently transfected to HeLa cells for 24 h and stimulated with 5 µM MG132 plus 100 nM TG for another 24 h. Cell lysates were incubated with R-catcher immobilized on tactin beads for 3 h. After wash, bound proteins were eluted with 2 × SDS sample buffer followed by boiling at 100 °C for 10 min and visualized by western blot analysis. b R-catcher pulldown assays to validate ATE1-dependent arginylation of […]1, PRDX4, FBLN1 and CLUS. Plasmids encoding […]1, PRDX4, FBLN1 and CLUS were transiently transfected into + / + and ATE1^−/− MEFs for 24 h and stimulated with 5 µM MG132 plus 100 nM TG for another 9 h. Cell lysates were subjected to R-catcher pulldown, and bound proteins were detected by western blot analysis. c R-catcher pull-down assays to evaluate if the arginylation of FBNL1, SERPINH1, CLUS and PRDX4 is induced in response to MG132 plus thapsigargin. d X-peptide pulldown assays to confirm no interaction of R-catcher with Nt-Ala19 of SERPINH1 peptides and Nt-Trp38 of PRDX4 peptides. X-peptides where X is A19 (SignalP predicted P1’ site), E20 (next possible P1’ site predicted by PrediSi) or R19 (Arginylated form of Glu) for SERPINH1 and W38 (SignalP predicted P1’ site), E39 (next possible P1’ site predicted by PrediSi) or R38 (Arginylated form) for PRDX4. Biotinylated X-peptides immobilized on streptavidin agarose beads were incubated with affinity-purified GST-ZZ ([…]). Bound GST-ZZ (N132D) was detected by immunoblotting. e Identification of arginylated sites employing mutational analysis. Predicted P1’ sites of SERPINH1, PRDX4, CLUS and FBLN1 were substituted to Gly, and the inhibitory effect of the mutation on binding with R-catcher was examined by performing R-catcher pulldown assays
# GST-ZZ122-175^N132D = GST-ZZ122-175^N132D pulldown from HeLa lysates (MG132 plus TG); assay type: binding, human; details: HeLa lysate, immunoblot
# Source text: Using these lysates and purified GST tagged ZZ122-175^N132D (Supplementary Fig. 4A) immobilized on glutathione resin, we performed pulldown assays. […] In addition to pulling down R-BiP and R-CRT, GST-ZZ122-175^N132D was able to capture polyubiquitinated proteins, which were also disrupted by the D129A mutation and RA dipeptide competition (Supplementary Fig. 4B). This was expected because arginylated proteins are known to be ubiquitinated by E3 ligases containing a UBR box leading to their proteasomal degradation.
# Fig. 4 ZZ122-175 ^N132D is capable of capturing known arginylated proteins in cells. a Western blot analysis to visualize arginylated BiP and CRT. […] N-terminally arginylated BiP and CRT were detected by immunoblotting using anti R-BiP and R-CRT antibodies. b GST pulldown assays to test the ability of wild type (WT) and N132D GST-ZZ in capturing cellular R-BiP and R-CRT. […] Pulled down R-BiP and R-CRT were detected using anti R-BiP and R-CRT antibodies. c Schematic drawing illustrating R-catcher. […] R-catcher bound arginylated proteins were detected by immunoblotting using anti-Myc or Flag antibody. e R-catcher pulldown assay to capture R-BiP and R-CRT induced in HeLa cells stimulated with MG132 plus TG in the absence or presence of 20 mM dipeptides TEXT PRINTED IN THE PICTURE: (C) R-catcher: ~ 9 kDa
Substance,effect of Gly substitution of P1' site on interaction with R-catcher (R-catcher [1]),"capture by R-catcher, ATE1 dependence (R-catcher [2])",arginylation detected by mass spectrometry [3],"binding with R-catcher, Nt-Arg dependence (R-catcher [4])",pulldown by GST-ZZ122-175^N132D (GST-ZZ122-175^N132D)
CLU: clusterin,significantly impaired their interaction with R-catcher; also recorded: abolished their binding with R-catcher,captured by R-catcher in an ATE1-dependent manner,arginylation at the D23 residue,Nt-Arg-dependent binding with R-catcher,–
R-BiP: Nt-arginylated BiP,–,–,–,bound R-catcher in an Nt-Arg-dependent manner,efficiently pull down
